Data as given in patent publication US20230085307A1, “PYRIDAZINONE COMPOUND AND HERBICIDE” (NISSAN CHEMICAL CORPORATION, priority 2019, published 2023).

How the values were obtained:
late watergrass [1] = test: Test Example 1: herbicidal activity, application before weed generation under submerged conditions (Table 16, symbol A); assay type: in vivo, late watergrass (Echinochloa oryzicola); conditions: amount of applied herbicide 214 g/ha
Outline: (§1)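 Submerged Wagner pots (alluvial soil, 4 cm water) sown with weed seeds and planted with 2.5-leaf rice seedlings; emulsifiable concentrate diluted in water applied to water surface on sowing day. Held in greenhouse at 25-30 °C; injury scored 0-5 by herbicidal rate after three weeks.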

Japanese bulrush = test: Test Example 1: herbicidal activity, application before weed generation under submerged conditions (Table 16, symbol B); assay type: in vivo, Japanese bulrush (Schoenoplectus juncoides); conditions: amount of applied herbicide 214 g/ha
Outline: as §1

oval-leafed pondweed [2] = test: Test Example 1: herbicidal activity, application before weed generation under submerged conditions (Table 16, symbol C); assay type: in vivo, oval-leafed pondweed (Monochoria vaginalis); conditions: amount of applied herbicide 214 g/ha
Outline: as §1

late watergrass [3] = test: Test Example 2: herbicidal activity, application during weed generation under submerged conditions (Table 17, symbol A); assay type: in vivo, late watergrass (Echinochloa oryzicola); conditions: AAH 214 g/ha; application during weed generation, submerged conditions
Outline: (§2)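 In this pot test, flooded alluvial soil (water depth 4 cm) holds all three species sown as a mixture. Once seedlings have one to two leaves, the compound's emulsion, thinned with water to the intended dose, is poured on the water; grading follows after three weeks on the earlier criteria.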

oval-leafed pondweed [4] = test: Test Example 2: herbicidal activity, application during weed generation under submerged conditions (Table 17, symbol C); assay type: in vivo, oval-leafed pondweed (Monochoria vaginalis); conditions: AAH 214 g/ha; application during weed generation, submerged conditions
Outline: as §2

barnyard grass = test: Test Example 3: herbicidal effect by foliage application, Wagner pot (Table 18, symbol H); assay type: in vivo, barnyard grass (Echinochloa crus-galli); conditions: 214 g/ha
Outline: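 Plants were sown in alluvial soil held under 0.1–0.5 cm standing water and grown 14 days in a greenhouse at 25–30 °C. An emulsifiable formulation, water-diluted to the set dose, was then sprayed onto the foliage, and effects were scored three weeks later using previously defined criteria.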

southern crabgrass [5] = test: Test Example 4: herbicidal effect by soil treatment (Table 19, symbol F); assay type: in vivo, southern crabgrass (Digitaria ciliaris); conditions: amount of applied herbicide 214 g/ha
Outline: (§3)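 Three weeks of greenhouse growth at 25° C. to 30° C. followed a uniform surface spray of water-diluted emulsion at a predetermined herbicide amount. Seeds had been sown beforehand under about 1.5 cm of sterilized diluvial soil. Grading followed criteria set out in an earlier test.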

wild oat = test: Test Example 4: herbicidal effect by soil treatment (Table 19, symbol I); assay type: in vivo, wild oat (Avena fatua); conditions: amount of applied herbicide 214 g/ha
Outline: as §3

windgrass = test: Test Example 4: herbicidal effect by soil treatment (Table 19, symbol L); assay type: in vivo, windgrass (Apera spica-venti); conditions: amount of applied herbicide 214 g/ha
Outline: as §3

velvetleaf = test: Test Example 4: herbicidal effect by soil treatment (Table 19, symbol M); assay type: in vivo, velvetleaf (Abutilon theophrasti); conditions: amount of applied herbicide 214 g/ha
Outline: as §3

redroot pigweed [6] = test: Test Example 4: herbicidal effect by soil treatment (Table 19, symbol N); assay type: in vivo, redroot pigweed (Amaranthus retroflexus); conditions: amount of applied herbicide 214 g/ha
Outline: as §3

chickweed = test: Test Example 4: herbicidal effect by soil treatment (Table 19, symbol P); assay type: in vivo, common chickweed (Stellaria media); conditions: amount of applied herbicide 214 g/ha
Outline: as §3

false cleavers = test: Test Example 4: herbicidal effect by soil treatment (Table 19, symbol Q); assay type: in vivo, false cleavers (Galium spurium); conditions: amount of applied herbicide 214 g/ha
Outline: as §3

persian speedwell = test: Test Example 4: herbicidal effect by soil treatment (Table 19, symbol R); assay type: in vivo, Persian speedwell (Veronica persica); conditions: amount of applied herbicide 214 g/ha
Outline: as §3

southern crabgrass [7] = test: Test Example 5: herbicidal effect by foliage application, plastic box (Table 20, symbol F); assay type: in vivo, southern crabgrass (Digitaria ciliaris); conditions: foliage application, 214 g/ha, three weeks after application
Outline: (§4)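 Plants sown in sterilized diluvial soil and grown 14 days in a greenhouse at 25° C to 30° C, then sprayed on the foliage with the compound's emulsion diluted in water to a predetermined herbicide amount. Injury to weeds and crops scored three weeks after application on a visual rating scale.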

green foxtail = test: Test Example 5: herbicidal effect by foliage application, plastic box (Table 20, symbol G); assay type: in vivo, green foxtail (Setaria viridis); conditions: foliage application, 214 g/ha, three weeks after application
Outline: as §4

redroot pigweed [8] = test: Test Example 5: herbicidal effect by foliage application, plastic box (Table 20, symbol N); assay type: in vivo, redroot pigweed (Amaranthus retroflexus); conditions: foliage application, 214 g/ha, three weeks after application
Outline: as §4

COc1ccc2c(-c3c(O)c(C)nn(C)c3=O)c(-c3ccccc3OC)sc2c1 [Compound No. 3-065, 5-hydroxy-4-(6-methoxy-2-(2-methoxyphenyl)benzo[b]thiophen-3-yl)-2,6-dimethylpyridazin-3(2H)-one]
Herbicidal effect, A: late watergrass (late watergrass [1]): 1 (Herbicidal rate of 5% or more and less than 20%)
Herbicidal effect, B: Japanese bulrush (Japanese bulrush): 3 (Herbicidal rate of 40% or more and less than 70%)
Herbicidal effect, C: oval-leafed pondweed (oval-leafed pondweed [2]): 3 (Herbicidal rate of 40% or more and less than 70%)
herbicidal effect rating, A: late watergrass (late watergrass [3]): 0 (Herbicidal rate of 5% or less (almost no effect))
herbicidal effect rating, C: oval-leafed pondweed (oval-leafed pondweed [4]): 3 (Herbicidal rate of 40% or more and less than 70%)
herbicidal effect on barnyard grass (H) (barnyard grass): 5 (Herbicidal rate of 90% or more (almost completely withered))
F: southern crabgrass, herbicidal effect grade (southern crabgrass [5]): 3 (Herbicidal rate of 40% or more and less than 70%)
I: wild oat, herbicidal effect grade (wild oat): 2 (Herbicidal rate of 20% or more and less than 40%)
L: windgrass, herbicidal effect grade (windgrass): 3 (Herbicidal rate of 40% or more and less than 70%)
M: velvetleaf, herbicidal effect grade (velvetleaf): 0 (Herbicidal rate of 5% or less (almost no effect))
N: redroot pigweed, herbicidal effect grade (redroot pigweed [6]): 4 (Herbicidal rate of 70% or more and less than 90%)
P: chickweed, herbicidal effect grade (chickweed): 5 (Herbicidal rate of 90% or more (almost completely withered))
Q: false cleavers, herbicidal effect grade (false cleavers): 4 (Herbicidal rate of 70% or more and less than 90%)
R: persian speedwell, herbicidal effect grade (persian speedwell): 5 (Herbicidal rate of 90% or more (almost completely withered))
F: southern crabgrass, herbicidal effect grade (southern crabgrass [7]): 4 (Herbicidal rate of 70% or more and less than 90%)
G: green foxtail, herbicidal effect grade (green foxtail): 5 (Herbicidal rate of 90% or more (almost completely withered))
N: redroot pigweed, herbicidal effect grade (redroot pigweed [8]): 3 (Herbicidal rate of 40% or more and less than 70%)
